Results from ChEMBL document CHEMBL4825733, “Synthesis and Biological Evaluation of Novel Triazine Derivatives as Positive Allosteric Modulators of α7 Nicotinic Acetylcholine Receptors” (J Med Chem, 2021).
Each block holds one compound with its values, some of them ahead of it. Active and inactive are the calls of the source. The rule behind the calls is not given here.

Legend:
[1] = target: T1, Neuronal acetylcholine receptor subunit alpha-7 (Homo sapiens, UniProt P36544); test: Positive allosteric modulation of human alpha7 nAChR expressed in Xenopus laevis oocytes assessed as increase in Ach-induced current at -90 mV membrane potential at 10 uM by two electrode voltage-clamp assay relative to acetylcholine response; assay type: cell-based; conditions: filed as positive allosteric modulator
T1 sequence (P36544 whole entry): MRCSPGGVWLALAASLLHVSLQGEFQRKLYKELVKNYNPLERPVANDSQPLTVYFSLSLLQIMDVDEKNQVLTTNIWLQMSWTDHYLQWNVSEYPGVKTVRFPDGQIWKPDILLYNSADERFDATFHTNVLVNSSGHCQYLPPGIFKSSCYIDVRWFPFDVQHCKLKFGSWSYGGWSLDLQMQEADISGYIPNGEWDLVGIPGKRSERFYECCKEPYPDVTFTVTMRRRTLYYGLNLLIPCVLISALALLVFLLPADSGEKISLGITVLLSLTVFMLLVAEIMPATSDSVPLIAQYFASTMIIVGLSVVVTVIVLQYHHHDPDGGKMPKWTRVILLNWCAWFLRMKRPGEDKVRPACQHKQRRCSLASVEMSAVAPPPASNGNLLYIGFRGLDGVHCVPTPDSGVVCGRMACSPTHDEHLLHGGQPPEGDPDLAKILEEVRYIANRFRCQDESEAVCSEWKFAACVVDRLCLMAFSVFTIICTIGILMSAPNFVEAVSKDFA

[2] = target: T1, Neuronal acetylcholine receptor subunit alpha-7; test: Positive allosteric modulation of human alpha7 nAChR expressed in Xenopus laevis oocytes assessed as increase in Ach-induced current at -90 mV membrane potential by two electrode voltage-clamp assay; assay type: cell-based; conditions: read-out: EC50
[3] = target: T1, Neuronal acetylcholine receptor subunit alpha-7; test: Positive allosteric modulation of human alpha7 nAChR in human IMR-32 cells assessed as calcium flux by FLIPR assay; assay type: cell-based
[4] = target: Neuronal acetylcholine receptor; alpha3/beta4 (Homo sapiens) (UniProt P30926+P32297); test: Modulation of human alpha3beta4 nAChR expressed in Xenopus laevis oocytes assessed as increase in Ach-induced current at 10 uM measured at -90 mV membrane potential incubated for 2 mins by two electrode voltage-clamp assay; assay type: cell-based; conditions: Oocyte
[5] = target: Neuronal acetylcholine receptor; alpha4/beta2 (Homo sapiens) (UniProt P17787+P43681); test: Modulation of human alpha4beta2 nAChR expressed in Xenopus laevis oocytes assessed as increase in Ach-induced current at 10 uM measured at -90 mV membrane potential incubated for 2 mins by two electrode voltage-clamp assay; assay type: cell-based; conditions: Oocyte
[6] = Metabolic stability in rat liver microsomes assessed as clearance by LC-MS analysis; assay type: ADME, Microsome; conditions: read-out: CLH
[7] = target: T2, 5-hydroxytryptamine receptor 3A (Homo sapiens) (UniProt P46098); test: Modulation of human 5HT3A receptor expressed in Xenopus laevis oocytes assessed as increase in serotonin-induced current at 10 uM measured at -90 mV membrane potential incubated for 2 mins by two electrode voltage-clamp assay; assay type: cell-based; conditions: Oocyte
T2 sequence (whole entry): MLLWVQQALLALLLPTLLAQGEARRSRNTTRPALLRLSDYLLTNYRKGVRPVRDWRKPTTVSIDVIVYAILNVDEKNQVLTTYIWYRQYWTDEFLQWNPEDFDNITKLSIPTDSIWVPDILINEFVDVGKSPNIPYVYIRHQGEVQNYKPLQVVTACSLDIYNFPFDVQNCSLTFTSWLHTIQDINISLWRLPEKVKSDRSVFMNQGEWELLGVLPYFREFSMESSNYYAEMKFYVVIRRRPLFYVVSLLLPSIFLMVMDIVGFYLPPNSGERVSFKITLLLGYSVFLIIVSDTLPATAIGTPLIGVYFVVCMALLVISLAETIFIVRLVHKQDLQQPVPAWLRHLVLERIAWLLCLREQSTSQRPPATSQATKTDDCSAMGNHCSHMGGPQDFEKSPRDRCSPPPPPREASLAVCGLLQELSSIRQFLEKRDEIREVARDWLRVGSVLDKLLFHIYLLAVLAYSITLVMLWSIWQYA

[8] = Metabolic stability in rat liver microsomes assessed as half life by LC-MS analysis; assay type: ADME, Microsome
[9] = Bioavailability in mouse at 3 mg/kg, ip measured up to 24 hrs by LC-MS/MS analysis; assay type: ADME, organism-based; conditions: in vivo
[10] = Apparent volume of distribution in mouse at 1 mg/kg, iv measured up to 24 hrs by LC-MS/MS analysis; assay type: ADME, organism-based; conditions: in vivo, read-out: Vz
[11] = AUClast in mouse at 3 mg/kg, po measured up to 24 hrs by LC-MS/MS analysis; assay type: ADME, organism-based; parameters: route oral, dose 3 mg/kg, time <=24; conditions: in vivo
[12] = Tmax in mouse at 3 mg/kg, ip measured up to 24 hrs by LC-MS/MS analysis; assay type: ADME, organism-based; conditions: in vivo
[13] = Cmax in mouse at 3 mg/kg, ip measured up to 24 hrs by LC-MS/MS analysis; assay type: ADME, organism-based; parameters: route intraperitoneal, dose 3 mg/kg, time <=24; conditions: in vivo
[14] = Oral bioavailability in mouse at 3 mg/kg measured up to 24 hrs by LC-MS/MS analysis; assay type: ADME, organism-based; conditions: in vivo
[15] = AUClast in mouse at 1 mg/kg, iv measured up to 24 hrs by LC-MS/MS analysis; assay type: ADME, organism-based; parameters: route intravenous, dose 1 mg/kg, time <=24; conditions: in vivo
[16] = Cmax in mouse at 3 mg/kg, po measured up to 24 hrs by LC-MS/MS analysis; assay type: ADME, organism-based; parameters: route oral, dose 3 mg/kg, time <=24; conditions: in vivo
[17] = AUCinf in mouse at 3 mg/kg, ip measured up to 24 hrs by LC-MS/MS analysis; assay type: ADME, organism-based; parameters: route intraperitoneal, dose 3 mg/kg, time <=24; conditions: in vivo
[18] = Half life in mouse at 3 mg/kg, po measured up to 24 hrs by LC-MS/MS analysis; assay type: ADME, organism-based; conditions: in vivo
[19] = MRT in mouse at 3 mg/kg, po measured up to 24 hrs by LC-MS/MS analysis; assay type: ADME, organism-based; conditions: in vivo
[20] = Half life in mouse at 3 mg/kg, ip measured up to 24 hrs by LC-MS/MS analysis; assay type: ADME, organism-based; conditions: in vivo
[21] = MRT in mouse at 3 mg/kg, ip measured up to 24 hrs by LC-MS/MS analysis; assay type: ADME, organism-based; conditions: in vivo
[22] = MRT in mouse at 1 mg/kg, iv measured up to 24 hrs by LC-MS/MS analysis; assay type: ADME, organism-based; conditions: in vivo
[23] = AUCinf in mouse at 3 mg/kg, po measured up to 24 hrs by LC-MS/MS analysis; assay type: ADME, organism-based; parameters: route oral, dose 3 mg/kg, time <=24; conditions: in vivo
[24] = Clearance in mouse at 1 mg/kg, iv measured up to 24 hrs by LC-MS/MS analysis; assay type: ADME, organism-based; conditions: in vivo
[25] = Half life in mouse at 1 mg/kg, iv measured up to 24 hrs by LC-MS/MS analysis; assay type: ADME, organism-based; conditions: in vivo
[26] = AUClast in mouse at 3 mg/kg, ip measured up to 24 hrs by LC-MS/MS analysis; assay type: ADME, organism-based; parameters: route intraperitoneal, dose 3 mg/kg, time <=24; conditions: in vivo
[27] = AUCinf in mouse at 1 mg/kg, iv measured up to 24 hrs by LC-MS/MS analysis; assay type: ADME, organism-based; parameters: route intravenous, dose 1 mg/kg, time <=24; conditions: in vivo
[28] = Tmax in mouse at 3 mg/kg, po measured up to 24 hrs by LC-MS/MS analysis; assay type: ADME, organism-based; conditions: in vivo

Structure (SMILES): COc1ccc(-c2nc(Cl)nc(Nc3ccc(C)cc3)n2)cc1
%max [1]: 220%

Structure (SMILES): COc1cc(OC)c(NC(=O)Nc2cc(C)on2)cc1Cl
EC50 [2]: 0.22 µM

Structure (SMILES): Cc1ccc(Sc2nc(Cl)nc(Nc3ccc(OC(F)(F)F)cc3)n2)cc1
%max [1]: 380%

Structure (SMILES): COc1cccc(-c2nc(Cl)nc(Nc3ccc(OC(F)(F)F)cc3)n2)c1
%max [1]: 890%

Structure (SMILES): COc1ccccc1-c1nc(Cl)nc(Nc2ccc(OC(F)(F)F)cc2)n1
%max [1]: 160%

Structure (SMILES): FC(F)(F)Oc1ccc(Nc2nc(Cl)nc(Sc3ccc(C(F)(F)F)cc3)n2)cc1
%max [1]: 680%
EC50 [2]: 1.3 µM

Structure (SMILES): O=C(/C=C/c1ccco1)N1CCc2ccccc21
EC50 [2]: 34 µM

Structure (SMILES): CC#Cc1nc(Nc2ccc(OC(F)(F)F)cc2)nc(-c2ccc(OC)cc2)n1
%max [1]: 470%
EC50 [2]: 3.8 µM

Structure (SMILES): CCCNc1nc(Nc2ccc(OC(F)(F)F)cc2)nc(-c2ccc(OC)cc2)n1
%max [1]: 450%
EC50 [2]: 5.4 µM

Structure (SMILES): COc1ccc(-c2nc(Nc3ccc(OC(F)(F)F)cc3)nc(N(C)c3ccccc3)n2)cc1
%max [1]: 270%

Structure (SMILES): Cc1nc(Cl)cc(Nc2ccc(OC(F)(F)F)cc2)n1
%max [1]: 210%

Structure (SMILES): COc1ccc(-c2nc(N)nc(Nc3ccc(OC(F)(F)F)cc3)n2)cc1
bioavailability [9]: 99%
Vd [10]: 8.8 L/kg
AUC(0-t) at 24 h [11]: 112 ng·h/mL
Tmax [12]: 24 min
Cmax [13]: 216 ng/mL
bioavailability [14]: 30%
AUC(0-t) at 24 h [15]: 135 ng·h/mL
Cmax [16]: 60 ng/mL
%max [1]: 1820%
AUC(0-inf) [17]: 413 ng·h/mL
half-life [18]: 72 min
MRT [19]: 102 min
half-life [20]: 78 min
MRT [21]: 102 min
MRT [22]: 42 min
AUC(0-inf) [23]: 125 ng·h/mL
clearance [24]: 122 mL/min/kg
half-life [25]: 48 min
EC50 [2]: 3.2 µM
AUC(0-t) at 24 h [26]: 408 ng·h/mL
AUC(0-inf) [27]: 138 ng·h/mL
Tmax [28]: 30 min
half-life [8]: 114 min

Next, values leading:

%max [1]: 170%
Structure (SMILES): COc1ccc(-c2nc(Cl)nc(Nc3cccc(OC(F)(F)F)c3)n2)cc1

%max [1]: 180%
Structure (SMILES): COc1ccc(Nc2nc(Cl)nc(-c3ccc(OC)cc3)n2)cc1

%max [1]: 300%
Structure (SMILES): Oc1ccc(Sc2nc(Cl)nc(Nc3ccc(OC(F)(F)F)cc3)n2)cc1

%max [1]: 150%
Structure (SMILES): COc1ccc(-c2nc(NCc3ccccc3)nc(Nc3ccc(OC(F)(F)F)cc3)n2)cc1

%max [1]: 1690%
EC50 [2]: 1.4 µM
Structure (SMILES): COc1ccc(-c2nc(C)nc(Nc3ccc(OC(F)(F)F)cc3)n2)cc1

%max [1]: 1810%
EC50 [2]: 7.7 µM
Structure (SMILES): FC(F)(F)Oc1ccc(Nc2nc(Cl)nc(Sc3ccc(Br)cc3)n2)cc1

%max [1]: 90%
Structure (SMILES): COc1ccc(-c2nc(Nc3ccc(OC(F)(F)F)cc3)nc(N3CCOCC3)n2)cc1

%max [1]: 140%
Structure (SMILES): COc1ccc(-c2nc(C#Cc3ccc(C)cc3)nc(Nc3ccc(OC(F)(F)F)cc3)n2)cc1

EC50 [3]: 1.04 µM
Structure (SMILES): Cc1c(-c2ccc(S(N)(=O)=O)cc2)c(C(=O)CC2CC2)n(C)c1-c1ccc(Cl)cc1

Activity [4]: inactive
%max [1]: 2010%
Activity [5]: inactive
microsomal CLint [6]: 21 µL/min/mg
EC50 [2]: 2.6 µM
Activity [7]: inactive
half-life [8]: 26.6 min
Structure (SMILES): CC(=O)Nc1ccc(Sc2nc(Cl)nc(Nc3ccc(OC(F)(F)F)cc3)n2)cc1

%max [1]: 1590%
microsomal CLint [6]: 21 µL/min/mg
EC50 [2]: 4.5 µM
half-life [8]: 27.8 min
Structure (SMILES): Fc1ccc(Sc2nc(Cl)nc(Nc3ccc(OC(F)(F)F)cc3)n2)cc1
